US9862690B2, “Treatment of pulmonary and other conditions” (University of Pittsburgh—of the Commonwealth System of …, priority 2013, dated 2018)

Legend:
[1] = TRAP assay (quenching of ABTS+ radical cation); format: biochemical; conditions: 10 μmol compound, 5 min, absorbance 734 nm; Troxol reference
Protocol: The anti-oxidant activities of PB 141 were determined by the ability of this compound to react with pre-formed radical monocation of 2,2′-azinobis-(3-ethylbenzothiazoline)-6-sulfonic acid (ABTS^+). Data are representative of one of two independent experiments; n=3; *** P<0.001 versus Troxol.
The anti-oxidant activity of PB141 or PB157 was determined by the ability of these compounds to react with the pre-formed radical monocation of 2,2′-azinobis-(3-ethylbenzothiazoline)-6-sulfonic acid (ABTS^+). ABTS (1.8 mmol) was reacted overnight with potassium persulfate (0.63 mmol) in double distilled water, at room temperature in the dark, to generate the dark blue ABTS^+ radical cation. This radical cation has a maximum absorption at 734 nm. Immediately prior to the experiment, ABTS^+ was diluted with absolute ethanol to an absorbance of approximately 0.7 at 734 nm. PB141 or PB157 (10 μmol) was added to ABTS^+ (1 ml) and mixed by vortexing. The reaction was allowed to stabilize for 5 min and the absorbance was measured. The anti-oxidant activities of these compounds were determined by their ability to quench the color of the radical cation. Troxol (10 μmol) was used as reference standard.

BEAS-2B cells = format: cell-based
Protocol: To evaluate cell viability, apoptosis, and cytotoxicity, the Apo Tox-Glo Triplex assay was used according to the manufacturer's instructions (Promega, Madison, Wis.). Briefly, the BEAS-2B cells were plated at 2×10^4 cells/well in 100 μl medium in an opaque walled, clear-bottomed, 96-well plate. After 24 hr culture, they were treated for a further indicated time with different concentrations of PB141 or PB157. At the end of the culture period, 20 μl viability/cytotoxicity reagent was added to each well, mixed by orbital shaking (300 r.p.m. for 30 s) and incubated for 30 min at 37° C. Fluorescence was then measured with excitation at 400 nm and emission at 505 nm to assess cell viability, and 485 nm excitation and 520 nm emission to assess cytotoxicity; both were quantified as relative fluorescence units (RFU). Then, 100 μl Caspase-Glo 3/7 reagent was added to each well, mixed by orbital shaking (300 r.p.m. for 30 s) and incubated for 30 min at room temperature. Luminescence was measured to assess caspase activation as a marker of apoptosis and quantified as relative luminescence units. Results for PB141 and PB157 were similar.

[2] = FRAP assay (ferric reduction/anti-oxidant power); format: biochemical; conditions: 10 μmol compound, 5 min, 593 nm; Troxol reference
Protocol: The antioxidant activity of PB141 was determined by ferric reduction/anti-oxidant power (FRAP) assay in which the compound is reacted with ferric tripyridyltriazine complex. Data are representative of one of two independent experiments; n=3; *** P<0.001 versus Troxol.
The antioxidant activity of PB141 or PB157 was determined by ferric reduction/anti-oxidant power (FRAP) assay in which the compounds are reacted with ferric tripyridyltriazine complex. The ferric complex was prepared at room temperature by reaction of ferric chloride (16.7 mmol) and 2,4,6-trispyridyl-s-triazine (8.33 mmol) in pH 3.6 acetate buffer (0.25 M). The FRAP reagent was used immediately after preparation. PB141 or PB157 (10 μmol) was added to the FRAP reagent (1 ml) and mixed by vortexing. The reaction was allowed to stabilize for 5 min and the absorbance was measured. The antioxidant activities of these compounds were determined by the ability to reduce the ferric complex to a […] ferrous complex, monitored at 593 nm. Troxol (10 μmol) was used as reference standard.

## CC(=O)N[C@@H](CSC(c1cnccn1)C1CCCC(C(SC[C@H](NC(C)=O)C(=O)O)c2cnccn2)C1=O)C(=O)O (stereo partly shown) [PB157]
[1]
  Anti-oxidant activity (ability to quench ABTS+ radical cation): clearly demonstrated
BEAS-2B cells
  Cytotoxicity: without exhibiting cytotoxicity
BEAS-2B cells; different concentrations, data not shown
  Apoptosis (caspase 3/7 activation): induced apoptosis
[2]
  Antioxidant activity (reduction of ferric complex): highly significant and approximately equal
